# From US8906933B2, “Dihydropyrimidin-2(1H)-one compounds as neurokinin-3 receptor antagonists” (N30 Pharmaceuticals, Inc., priority 2010, dated 2014)
# Where two headings read alike, the source gives them in different places.
# What was measured:
# [1] = biological target: T1, human NK3 receptor (Homo sapiens (Human), UniProt P29371); test: Human NK3 receptor binding assay at 10 μM; conditions: 10 μM test compound, [3H]SR142801, CHO cell membranes
# Protocol: Antagonist activity was evaluated at a concentration of 10 μM for a representative subset of test compounds, and the results were expressed as the percent inhibition at that concentration.
# Each test compound was evaluated at a single concentration of 10 μM. […] The results are expressed as a percent of control specific binding ((measured specific binding/control specific binding)×100) obtained in the presence of the test compounds.
# [2] = biological target: T1, human NK3 receptor; test: biochemical
# Protocol: Evaluation of the affinity of compounds for the human NK3 receptor from transfected CHO cells was performed using an antagonist radioligand binding assay. The antagonist activity of a representative subset of test compounds was evaluated over a range of concentrations, and the results were expressed as IC50 values.
# Receptor binding assays were performed using crude membranes prepared from CHO cells expressing human NK3 receptor. Osanetant (SR142801), a non-peptide NK3 antagonist, was used as a ligand, and SB222200 was used as a positive control reference compound. The assay was performed with cell membrane homogenates (24 μg protein) incubated for 120 min at 22° C. with 0.4 nM [^3H]SR142801 in the absence or presence of the test compound in a buffer containing 20 mM Hepes/NaOH (pH 7.4), 120 mM NaCl, 1 mM MnCl2, 0.01% bacitracin, 0.002% aprotinin and 0.1% BSA. Following incubation, the samples were filtered rapidly under vacuum through glass fiber filters (GF/B, Packard) that had been presoaked with 0.3% PEI. The filters were rinsed several times with ice-cold 50 mM Tris/HCl using a 96-sample cell harvester (Unifilter, Packard), dried, and counted for radioactivity in a scintillation counter (Topcount, Packard) using a scintillation cocktail (Microscint 0, Packard). […] The standard reference compound, SB222200, was tested in each experiment. Nonspecific binding was determined in the presence of 10 μM SB222200. The specific ligand binding to the receptor is defined as the difference between the total binding and the nonspecific binding. The IC50 values (concentration causing a half-maximal inhibition of control specific binding) and Hill coefficients (nH) were determined by non-linear regression analysis of the competition curves generated with mean replicate values using Hill equation curve fitting (Y=D+[(A−D)/(1+(C/C50)^nH)], where Y=specific binding, D=minimum specific binding, A=maximum specific binding, C=compound concentration, C50=IC50, and nH=slope factor). […] The inhibition constants (Ki) were calculated using the Cheng Prusoff equation (Ki=IC50/(1+(L/KD)), where L=concentration of radioligand in the assay, and KD=affinity of the radioligand for the receptor). A scatchard plot was used to determine the Kd.
# [3] = biological target: T1, human NK3 receptor; test: Human NK3 receptor binding assay at 1 uM; conditions: 1 μM test compound; [3H]SR142801, CHO cell membranes; read-out: percent inhibition at 1 μM
# Protocol: Antagonist activity was evaluated at a concentration of 1 μM for a representative subset of test compounds, and the results were expressed as the percent inhibition at that concentration.
# Each test compound was evaluated at a single concentration of 1 μM. […] The results are expressed as a percent of control specific binding ((measured specific binding/control specific binding)×100) obtained in the presence of the test compounds.
# [4] = read-out: percent inhibition at 10 μM
# [5] = read-out: NK3, % inhibition @ 10 μM
# T1 sequence (P29371 whole entry): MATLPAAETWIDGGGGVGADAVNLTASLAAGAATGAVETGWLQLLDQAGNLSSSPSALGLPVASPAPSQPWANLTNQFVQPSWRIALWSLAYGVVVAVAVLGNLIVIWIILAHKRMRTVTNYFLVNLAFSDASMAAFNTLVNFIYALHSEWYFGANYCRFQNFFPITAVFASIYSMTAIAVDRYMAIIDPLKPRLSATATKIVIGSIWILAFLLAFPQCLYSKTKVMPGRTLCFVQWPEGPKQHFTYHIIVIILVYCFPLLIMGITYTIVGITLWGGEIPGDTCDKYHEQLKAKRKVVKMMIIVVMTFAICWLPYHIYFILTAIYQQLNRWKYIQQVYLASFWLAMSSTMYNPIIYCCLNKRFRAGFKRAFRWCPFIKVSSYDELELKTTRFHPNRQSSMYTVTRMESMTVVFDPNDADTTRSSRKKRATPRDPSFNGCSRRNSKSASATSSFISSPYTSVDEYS
Compound,"inhibition at 10 µM [1, 4] [%]",IC50 [2] [nM],inhibition at 1 µM [3] [%],"inhibition at 10 µM [1, 5] [%]"
"CCOc1cc(C2NC(=O)NC(c3ccccc3)=C2c2cccc(C#N)c2)cc([N+](=O)[O-])c1O (centres unmarked) [3-(4-(3-ethoxy-4-hydroxy-5-nitrophenyl)-2-oxo-6-phenyl-1,2,3,4-tetrahydropyrimidin-5-yl)benzonitrile]",> 50,–,–,–
"O=C1NC(c2ccccc2)=C(c2ccccc2)C(c2cc(Cl)c(O)c([N+](=O)[O-])c2)N1 (centres unmarked) [4-(3-chloro-4-hydroxy-5-nitrophenyl)-5,6-diphenyl-3,4-dihydropyrimidin-2(1H)-one]",> 50,–,–,–
"CCOc1cc(C2C(c3ccccc3)=C(c3ccccc3)N(C)C(=O)N2C)cc([N+](=O)[O-])c1O (centres unmarked) [4-(3-ethoxy-4-hydroxy-5-nitrophenyl)-1,3-dimethyl-5,6-diphenyl-3,4-dihydropyrimidin-2(1H)-one]",–,≤ 100,> 50,–
"CCOc1cc(C2NC(=O)N(C)C(c3ccccc3)=C2c2ccccc2)cc([N+](=O)[O-])c1O (centres unmarked) [4-(3-ethoxy-4-hydroxy-5-nitrophenyl)-1-methyl-5,6-diphenyl-3,4-dihydropyrimidin-2(1H)-one]",–,≤ 1000,> 50,–
"CCOc1cc(C2C(c3ccccc3)=C(c3ccccc3)NC(=O)N2C)cc([N+](=O)[O-])c1O (centres unmarked) [4-(3-ethoxy-4-hydroxy-5-nitrophenyl)-3-methyl-5,6-diphenyl-3,4-dihydropyrimidin-2(1H)-one]",–,≤ 1000,> 50,–
"CCOc1cc(C2NC(=O)NC(c3ccccc3)=C2c2ccccc2)cc([N+](=O)[O-])c1O (centres unmarked) [4-(3-ethoxy-4-hydroxy-5-nitrophenyl)-5,6-diphenyl-3,4-dihydropyrimidin-2(1H)-one]",> 50,–,–,88
"CCOc1cc([C@@H]2NC(=O)NC(c3ccccc3)=C2c2ccccc2)cc([N+](=O)[O-])c1O [4-(3-ethoxy-4-hydroxy-5-nitrophenyl)-5,6-diphenyl-3,4-dihydropyrimidin-2(1H)-one]",–,19000,–,–
"CCOc1cc(C2NC(=O)NC(c3ccccc3)=C2c2ccccc2F)cc([N+](=O)[O-])c1O (centres unmarked) [4-(3-ethoxy-4-hydroxy-5-nitrophenyl)-5-(2-fluorophenyl)-6-phenyl-3,4-dihydropyrimidin-2(1H)-one]",> 50,–,> 50,–
"CCOc1cc(C2NC(=O)NC(c3cccnc3)=C2c2ccccc2)cc([N+](=O)[O-])c1O (centres unmarked) [4-(3-ethoxy-4-hydroxy-5-nitrophenyl)-5-phenyl-6-(pyridin-3-yl)-3,4-dihydropyrimidin-2(1H)-one]",> 50,–,–,92
"CCOc1cc([C@@H]2NC(=O)NC(c3cccnc3)=C2c2ccccc2)cc([N+](=O)[O-])c1O [4-(3-ethoxy-4-hydroxy-5-nitrophenyl)-5-phenyl-6-(pyridin-3-yl)-3,4-dihydropyrimidin-2(1H)-one]",–,55000,–,–
"CCOc1cc(C2NC(=O)NC(c3cccs3)=C2c2ccccc2)cc([N+](=O)[O-])c1O (centres unmarked) [4-(3-ethoxy-4-hydroxy-5-nitrophenyl)-5-phenyl-6-(thiophen-2-yl)-3,4-dihydropyrimidin-2(1H)-one]",> 50,–,–,–
"CCOc1cc(C2NC(=O)NC(c3ccsc3)=C2c2ccccc2)cc([N+](=O)[O-])c1O (centres unmarked) [4-(3-ethoxy-4-hydroxy-5-nitrophenyl)-5-phenyl-6-(thiophen-3-yl)-3,4-dihydropyrimidin-2(1H)-one]",> 50,–,–,–
"CCOc1cc(C2NC(=O)NC(c3ccn(C)n3)=C2c2ccsc2)cc([N+](=O)[O-])c1O (centres unmarked) [4-(3-ethoxy-4-hydroxy-5-nitrophenyl)-6-(1-methyl-1H-pyrazol-3-yl)-5-(thiophen-3-yl)-3,4-dihydropyrimidin-2(1H)-one]",> 50,–,–,61
"CCOc1cc(C2NC(=O)NC(c3cnn(C)c3)=C2c2ccsc2)cc([N+](=O)[O-])c1O (centres unmarked) [4-(3-ethoxy-4-hydroxy-5-nitrophenyl)-6-(1-methyl-1H-pyrazol-4-yl)-5-(thiophen-3-yl)-3,4-dihydropyrimidin-2(1H)-one]",> 50,–,–,–
"CCOc1cc(C2NC(=O)NC(c3cccc(OC)c3)=C2c2ccccc2)cc([N+](=O)[O-])c1O (centres unmarked) [4-(3-ethoxy-4-hydroxy-5-nitrophenyl)-6-(3-methoxyphenyl)-5-phenyl-3,4-dihydropyrimidin-2(1H)-one]",> 50,–,> 50,–
"CCOc1cc(C2NC(=O)NC(c3ccoc3)=C2c2ccccc2)cc([N+](=O)[O-])c1O (centres unmarked) [4-(3-ethoxy-4-hydroxy-5-nitrophenyl)-6-(furan-3-yl)-5-phenyl-3,4-dihydropyrimidin-2(1H)-one]",> 50,–,–,–
"CCOc1cc(C2NC(=O)NC(c3cccnc3)=C2c2ccsc2)cc([N+](=O)[O-])c1O (centres unmarked) [4-(3-ethoxy-4-hydroxy-5-nitrophenyl)-6-(pyridin-3-yl)-5-(thiophen-3-yl)-3,4-dihydropyrimidin-2(1H)-one]",> 50,–,–,63

Compound,"inhibition at 10 µM [1, 4] [%]",IC50 [2] [nM],inhibition at 1 µM [3] [%],"inhibition at 10 µM [1, 5] [%]"
"CCOc1cc(C2NC(=O)NC(c3ccccc3)=C2c2cccs2)cc([N+](=O)[O-])c1O (centres unmarked) [4-(3-ethoxy-4-hydroxy-5-nitrophenyl)-6-phenyl-5-(thiophen-2-yl)-3,4-dihydropyrimidin-2(1H)-one]",> 50,–,–,–
"CCOc1cc(C2NC(=O)NC(c3ccccc3)=C2c2ccsc2)cc([N+](=O)[O-])c1O (centres unmarked) [4-(3-ethoxy-4-hydroxy-5-nitrophenyl)-6-phenyl-5-(thiophen-3-yl)-3,4-dihydropyrimidin-2(1H)-one]",> 50,–,–,97
"CCOc1cc([C@@H]2NC(=O)NC(c3ccccc3)=C2c2ccsc2)cc([N+](=O)[O-])c1O [4-(3-ethoxy-4-hydroxy-5-nitrophenyl)-6-phenyl-5-(thiophen-3-yl)-3,4-dihydropyrimidin-2(1H)-one]",–,22000,–,–
"CCOc1cc(C2NC(=O)NC(c3ccccc3)=C2c2cccc(C)c2)cc([N+](=O)[O-])c1O (centres unmarked) [4-(3-ethoxy-4-hydroxy-5-nitrophenyl)-6-phenyl-5-m-tolyl-3,4-dihydropyrimidin-2(1H)-one]",–,≤ 1000,> 50,–
"COCCOc1cc(C2NC(=O)NC(c3ccccc3)=C2c2ccccc2)cc([N+](=O)[O-])c1O (centres unmarked) [4-(4-hydroxy-3-(2-methoxyethoxy)-5-nitrophenyl)-5,6-diphenyl-3,4-dihydropyrimidin-2(1H)-one]",> 50,–,> 50,–
"COc1cc(C2NC(=O)NC(c3ccccc3)=C2c2ccccc2)cc([N+](=O)[O-])c1O (centres unmarked) [4-(4-hydroxy-3-methoxy-5-nitrophenyl)-5,6-diphenyl-3,4-dihydropyrimidin-2(1H)-one]",> 50,–,> 50,–
"CCOc1cc(C2NC(=O)NC(c3cc(F)cc(F)c3)=C2c2ccccc2)cc([N+](=O)[O-])c1O (centres unmarked) [6-(3,5-difluorophenyl)-4-(3-ethoxy-4-hydroxy-5-nitrophenyl)-5-phenyl-3,4-dihydropyrimidin-2(1H)-one]",–,–,> 50,–
"CCOc1cc(C2NC(=O)NC(c3ccc(F)c(Cl)c3)=C2c2ccccc2)cc([N+](=O)[O-])c1O (centres unmarked) [6-(3-chloro-4-fluorophenyl)-4-(3-ethoxy-4-hydroxy-5-nitrophenyl)-5-phenyl-3,4-dihydropyrimidin-2(1H)-one]",–,–,> 50,–
"CCOc1cc(C2NC(=O)NC(c3cccc(Cl)c3)=C2c2ccccc2)cc([N+](=O)[O-])c1O (centres unmarked) [6-(3-chlorophenyl)-4-(3-ethoxy-4-hydroxy-5-nitrophenyl)-5-phenyl-3,4-dihydropyrimidin-2(1H)-one]",–,–,> 50,–
"CCOc1cc(C2NC(=O)NC(c3ccc(Cl)c(F)c3)=C2c2ccccc2)cc([N+](=O)[O-])c1O (centres unmarked) [6-(4-chloro-3-fluorophenyl)-4-(3-ethoxy-4-hydroxy-5-nitrophenyl)-5-phenyl-3,4-dihydropyrimidin-2(1H)-one]",> 50,–,> 50,–
"CCOc1cc(C2NC(=O)NC(c3ccc(Cl)cc3)=C2c2ccccc2)cc([N+](=O)[O-])c1O (centres unmarked) [6-(4-chlorophenyl)-4-(3-ethoxy-4-hydroxy-5-nitrophenyl)-5-phenyl-3,4-dihydropyrimidin-2(1H)-one]",–,–,> 50,–
"CCOc1cc(C2NC(=O)NC(C3CCCC3)=C2c2ccccc2)cc([N+](=O)[O-])c1O (centres unmarked) [6-cyclopentyl-4-(3-ethoxy-4-hydroxy-5-nitrophenyl)-5-phenyl-3,4-dihydropyrimidin-2(1H)-one]",–,–,> 50,–
"CCOc1cc(C2NC(=O)NC(c3ccccc3)=C2c2ccccc2)cc2[nH]c(=O)oc12 (centres unmarked) [7-ethoxy-5-(2-oxo-5,6-diphenyl-1,2,3,4-tetrahydropyrimidin-4-yl)benzo[d]oxazol-2(3H)-one]",–,–,> 50,–
"CCOc1cc([C@H]2NC(=O)NC(c3ccccc3)=C2c2ccccc2)cc([N+](=O)[O-])c1O [(R)-4-(3-ethoxy-4-hydroxy-5-nitrophenyl)-5,6-diphenyl-3,4-dihydropyrimidin-2(1H)-one]",–,110,–,–
"CCOc1cc([C@H]2NC(=O)NC(c3cccnc3)=C2c2ccccc2)cc([N+](=O)[O-])c1O [(R)-4-(3-ethoxy-4-hydroxy-5-nitrophenyl)-5-phenyl-6-(pyridin-3-yl)-3,4-dihydropyrimidin-2(1H)-one]",–,700,–,–
"CCOc1cc([C@H]2NC(=O)NC(c3ccccc3)=C2c2ccsc2)cc([N+](=O)[O-])c1O [(R)-4-(3-ethoxy-4-hydroxy-5-nitrophenyl)-6-phenyl-5-(thiophen-3-yl)-3,4-dihydropyrimidin-2(1H)-one]",–,1400,–,–
